Laboratory results reported in ChEMBL document CHEMBL1201862, “PubChem BioAssay data set” (2004).
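Where inhibition never reached the appropriate level, the endpoint shown equals the highest concentration tested. Otherwise, values were interpolated linearly from a five-concentration, 48-hour dose response in 96-well plates. GI50 = concentration required for 50% inhibition of growth.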 Activity calls are given as the source filed them. Rule as the data show it: active = GI50 up to about 1.1 µM and inactive = higher. Peptide text beside a SMILES is read from it. * marks the point of attachment. Boc = CC(C)(C)OC(=O)*

What was measured:
Assay in all cases: NCI anticancer screen, dose series, 48 h
CCRF-CEM = system: CCRF-CEM
DU-145 = system: DU-145
EKVX = system: EKVX
HCT-15 = system: HCT-15
HL-60 = system: HL-60
Hs-578T = system: Hs-578T
K562 = system: K562
KM12 = system: KM12
MDA-N = system: MDA-N
Malme-3M = system: Malme-3M
NCI-H460 = system: NCI-H460
NCI-H522 = system: NCI-H522
NCI/ADR-RES = system: NCI/ADR-RES
OVCAR-5 = system: OVCAR-5
RXF 393 = system: RXF 393
SF-539 = system: SF-539
SK-MEL-2 = system: SK-MEL-2
SK-MEL-5 = system: SK-MEL-5
SN12C = system: SN12C
SNB-75 = system: SNB-75

Measured: GI50

C=C[C@@]1(C)CC2(C=C(CO)C(O)O2)Oc2c1c(=O)oc1cccc(C)c21 (stereo not given in full)
inactive: CCRF-CEM 1.58 µM | DU-145 13.9 µM | EKVX 17.1 µM | HL-60 1.77 µM | Hs-578T 10.6 µM | K562 2.23 µM | KM12 18.3 µM | MDA-N 4.03 µM | Malme-3M 4.85 µM | NCI-H460 19.8 µM | NCI-H522 2.33 µM | NCI/ADR-RES 2.61 µM | OVCAR-5 17.6 µM | RXF 393 2.26 µM | SF-539 5.53 µM | SK-MEL-2 4.1 µM | SK-MEL-5 12.7 µM | SN12C 9.86 µM | SNB-75 14.8 µM
2.39 µM: HCT-15

O=C1O/C(=C\c2ccc(O)cc2)C(c2ccc(O)c(Cl)c2)=C1Cl
50 µM: HCT-15
inactive: CCRF-CEM 35.7 µM | DU-145 > 100 µM | EKVX 88.5 µM | HL-60 33 µM | Hs-578T > 100 µM | K562 57.1 µM | KM12 34 µM | MDA-N 23.5 µM | Malme-3M 24.5 µM | NCI-H460 30.3 µM | NCI-H522 23 µM | NCI/ADR-RES 36.2 µM | OVCAR-5 > 100 µM | RXF 393 30.9 µM | SF-539 91.8 µM | SK-MEL-2 31.2 µM | SK-MEL-5 18.5 µM | SN12C 88.9 µM | SNB-75 70 µM

CCOC(=O)C(Cc1c2ccccc2cc2ccccc12)(NC(C)=O)C(=O)OCC
inactive: CCRF-CEM 56.4 µM | DU-145 > 92.5 µM | EKVX > 100 µM | HL-60 34.4 µM | Hs-578T 46.8 µM | K562 > 69.8 µM | KM12 97.7 µM | MDA-N > 83.9 µM | Malme-3M > 100 µM | NCI-H460 > 100 µM | NCI-H522 64 µM | NCI/ADR-RES > 50.2 µM | OVCAR-5 > 100 µM | RXF 393 42.7 µM | SF-539 > 64.6 µM | SK-MEL-2 > 100 µM | SK-MEL-5 > 50.6 µM | SN12C > 100 µM | SNB-75 > 19.8 µM
> 49.3 µM: HCT-15

C[C@H]1ON2CCC[C@@H]2[C@@H]1C(=O)N1C2CC3CCC2(CS1(=O)=O)C3(C)C (stereo not given in full)
> 100 µM: HCT-15
active: HL-60 0.295 µM
inactive: CCRF-CEM > 100 µM | DU-145 > 100 µM | EKVX > 100 µM | Hs-578T > 100 µM | K562 > 100 µM | KM12 > 100 µM | MDA-N > 100 µM | Malme-3M > 100 µM | NCI-H460 > 100 µM | NCI-H522 > 100 µM | NCI/ADR-RES > 100 µM | OVCAR-5 > 100 µM | RXF 393 > 100 µM | SF-539 > 100 µM | SK-MEL-2 > 100 µM | SK-MEL-5 > 100 µM | SN12C > 100 µM | SNB-75 > 100 µM

Cc1nn2c(=O)c([N+](=O)[O-])c(/C=C/c3ccc(F)cc3)nc2s1
7.5 µM: HCT-15
inactive: CCRF-CEM 4.47 µM | DU-145 16.2 µM | EKVX 5.64 µM | HL-60 3.95 µM | Hs-578T 11.2 µM | K562 5.69 µM | KM12 7.24 µM | MDA-N 5.96 µM | Malme-3M 11.6 µM | NCI-H460 8.34 µM | NCI-H522 8.49 µM | NCI/ADR-RES 9.77 µM | OVCAR-5 9.89 µM | RXF 393 4.42 µM | SF-539 8.55 µM | SK-MEL-2 9.91 µM | SK-MEL-5 7.94 µM | SN12C 11.6 µM | SNB-75 9.27 µM

C[C@@H]1C[C@H](O)[C@]2(O)O[C@@H]3C[C@@]4(C=O)[C@@H](CC=C5[C@@H]4CC[C@]4(C)[C@@H](C6=CC(=O)OC6)CC[C@]54O)C[C@H]3O[C@@H]2O1
0.0175 µM: HCT-15
active: CCRF-CEM < 0.01 µM | DU-145 < 0.0163 µM | EKVX < 0.01 µM | HL-60 0.0171 µM | Hs-578T < 0.01 µM | K562 < 0.0231 µM | KM12 0.0337 µM | MDA-N 0.042 µM | Malme-3M < 0.01 µM | NCI-H460 < 0.0129 µM | NCI-H522 < 0.01 µM | NCI/ADR-RES < 0.0202 µM | OVCAR-5 0.0951 µM | RXF 393 < 0.0196 µM | SF-539 < 0.0166 µM | SK-MEL-2 0.098 µM | SK-MEL-5 < 0.0169 µM | SN12C < 0.01 µM | SNB-75 0.112 µM

COC(=O)C1(Cc2cccc(C)c2)Cc2c(C)cccc2C1=O (stereo not given)
32.1 µM: HCT-15
inactive: CCRF-CEM 61.8 µM | DU-145 > 100 µM | EKVX 29.1 µM | HL-60 > 100 µM | Hs-578T 38.5 µM | K562 35.9 µM | KM12 28.1 µM | MDA-N 14.3 µM | Malme-3M 33.9 µM | NCI-H460 45.4 µM | NCI-H522 22.6 µM | NCI/ADR-RES 24 µM | OVCAR-5 > 100 µM | RXF 393 29.4 µM | SF-539 38.4 µM | SK-MEL-2 32.7 µM | SK-MEL-5 38.5 µM | SN12C 44.9 µM | SNB-75 43.3 µM

C#C/C=C\CCCCCCCCCCCCCC/C=C\CCCCC#CC(O)C#CCCCC/C=C\CCCCCC/C=C/C(O)C#C (stereo not given)
22.5 µM: HCT-15
inactive: CCRF-CEM 5.25 µM | DU-145 30.9 µM | EKVX 17 µM | HL-60 13 µM | Hs-578T 42.5 µM | K562 23.8 µM | KM12 7.08 µM | MDA-N 3.8 µM | Malme-3M 17.1 µM | NCI-H460 39.9 µM | NCI-H522 5.7 µM | NCI/ADR-RES 31.5 µM | OVCAR-5 26.1 µM | RXF 393 15.8 µM | SF-539 29.6 µM | SK-MEL-2 12.9 µM | SK-MEL-5 5.89 µM | SN12C 24.2 µM | SNB-75 42.7 µM

COCN1CCN=c2c1c1c3c(c4ccccc4n23)CCC1
inactive: CCRF-CEM > 100 µM | DU-145 > 100 µM | EKVX > 100 µM | HL-60 > 100 µM | Hs-578T > 100 µM | K562 > 100 µM | KM12 > 100 µM | MDA-N > 100 µM | Malme-3M > 100 µM | NCI-H460 > 100 µM | NCI-H522 > 100 µM | NCI/ADR-RES > 100 µM | OVCAR-5 > 100 µM | RXF 393 > 100 µM | SF-539 > 100 µM | SK-MEL-2 > 100 µM | SK-MEL-5 > 100 µM | SN12C > 100 µM | SNB-75 > 100 µM
> 100 µM: HCT-15

c1ccc2c(CC3NCCN3)cccc2c1
inactive: CCRF-CEM > 100 µM | DU-145 > 100 µM | EKVX > 100 µM | HL-60 > 100 µM | Hs-578T > 100 µM | K562 > 100 µM | KM12 > 100 µM | MDA-N > 100 µM | Malme-3M > 100 µM | NCI-H460 > 100 µM | NCI-H522 > 100 µM | NCI/ADR-RES > 100 µM | OVCAR-5 > 100 µM | RXF 393 > 100 µM | SF-539 > 100 µM | SK-MEL-2 > 100 µM | SK-MEL-5 > 100 µM | SN12C > 100 µM | SNB-75 > 100 µM
> 100 µM: HCT-15

CCSC12CC3c4cccc5c4C(CN5C(=O)c4ccccc4)CC3(O1)N(C)C2=O (stereo not given)
inactive: CCRF-CEM 28.6 µM | DU-145 51.8 µM | EKVX 24.2 µM | HL-60 22.7 µM | Hs-578T 46.3 µM | K562 33.3 µM | KM12 45.4 µM | MDA-N 25.3 µM | Malme-3M 35.6 µM | NCI-H460 37.8 µM | NCI-H522 25.1 µM | NCI/ADR-RES 29 µM | OVCAR-5 83 µM | RXF 393 71.1 µM | SF-539 26.9 µM | SK-MEL-2 40.3 µM | SK-MEL-5 14.7 µM | SN12C 17.2 µM | SNB-75 73.6 µM
29.4 µM: HCT-15

CC1CC[C@]2(C(=O)O)CCC3(C)C(=C2[C@H]1C)C=CC1[C@@]2(C)CC[C@H](O)C(C)(C)C2CC[C@]13C (stereo not given in full)
27.4 µM: HCT-15
inactive: CCRF-CEM 29.7 µM | DU-145 16.6 µM | EKVX 32.8 µM | HL-60 18.6 µM | Hs-578T 26 µM | K562 14.7 µM | KM12 31 µM | MDA-N 56.9 µM | Malme-3M 26.6 µM | NCI-H460 21.6 µM | NCI-H522 23.1 µM | NCI/ADR-RES 36.6 µM | OVCAR-5 39.5 µM | RXF 393 3.8 µM | SF-539 17.3 µM | SK-MEL-2 64.9 µM | SK-MEL-5 21.4 µM | SN12C 59.3 µM | SNB-75 24.5 µM

COC(=O)C(Cc1ccccc1)NC(=O)C(CS)NC(=O)OC(C)(C)C (stereo not drawn) (Boc-Cys-Phe-OMe; configuration not given here)
> 100 µM: HCT-15
inactive: CCRF-CEM 21.8 µM | DU-145 > 100 µM | EKVX > 100 µM | HL-60 27.7 µM | Hs-578T > 100 µM | K562 38.2 µM | KM12 94.4 µM | MDA-N > 100 µM | Malme-3M > 100 µM | NCI-H460 > 100 µM | NCI-H522 > 100 µM | NCI/ADR-RES > 100 µM | OVCAR-5 > 100 µM | RXF 393 26 µM | SF-539 > 100 µM | SK-MEL-2 > 100 µM | SK-MEL-5 > 100 µM | SN12C > 100 µM | SNB-75 > 100 µM
